Read-outs that look alike come from different tables or passages of the source.

One test has as its system MDA-MB-436 cells. Description: Cell proliferation inhibition assay (CellTiter-Glo, 120 hrs). Format: cell-based, human. As to conditions: 120 hrs incubation, read-out: ED50 (MDA-MB-436). The method, then: Example 2. Cell Proliferation Inhibition Assay
The proliferation inhibitory activity of the compound of the present invention on the breast cancer cell line MDA-MB-436 of triple negative phenotype was tested in vitro.
1. Tumor cell line MDA-MB-436 supplied from HD Biosciences (Shanghai) Co., Ltd., and passed the Mycoplasma detection.
7. CellTiter-Glo Luminescent Cell Viability Assay, Promega, Catalog #: G7571.
Formulation of Compound Solutions
1. Each test compound was formulated into a 60 mM stock solution in DMSO, packaged, and stored in a freezer at −80°. The stock solution of each test compound was serially diluted in DMSO to give solutions at various concentration gradients, including 6 mM, 2 mM, 0.6 mM, 0.2 mM, 60 μM, and 20 μM.
2. Just before experiment, the formulated solution at various concentration gradients of each test compound was aseptically 100-fold diluted in the complete cell culture medium. In this case, the concentration gradients of the test compound included 60 μM, 20 μM, 6 μM, 2 μM, 0.6 μM, and 0.2 μM. These were 2× compound solutions, and could be used to treat the cells.
3. The stock solution of Compounds (1) to (21) and the control compound AZD2281 was serially diluted in DMSO to give solutions at various concentration gradients, including 20 μM, 2 μM, 0.2 μM, 0.02 μM, 0.002 μM, and 0.0002 μM. Before experiment, the formulated solution at various concentration gradients of each test compound was aseptically 100-fold diluted in the complete cell culture medium. The concentration gradients of the positive compound included 200 nM, 20 nM, 2 nM, 0.2 nM, 0.02 nM, and 0.002 nM. These were 2× compound solutions, and could be used to treat the cells.
1. One day before treatment with the compounds, the cells were inoculated into a 96-well plate at a density of 8000 cells/50 μl/well.
2. On the following day, the formulated 2× compound solutions were added, in accordance with a compound arrangement pattern, to the plate in an amount of 50 μl/well.
3. The plate was gently agitaged, and incubated for 120 hrs in an incubator at 37° C.
4. After incubation, the formulated reagent was added to the plate following instruction of the CellTiter Glo reagent, fully mixed, and incubated for 10 min at room temperature in the dark.
5. The plate was analyzed on a plate reader, the chemiluminescence was read, and the data was recorded.
The reading of each well needs to be converted into cell viability. The cell viability can be calculated using the following formula: […]
The processed data was subjected to non-linear regression analysis by using the GraphPad Prism5 analysis software, to obtain a dose-response curve; and the median effective dose (ED50) of test compounds for the MDA-MB-436 cells was calculated.
Background: ATP-based viability assays read luminescence as a measure of living cells.

The subject of test [1] is Human pancreatic cancer CAPAN-1 cells. The test is described as follows: Tumor inhibition in nude mice tumor model transplanted with human pancreatic cancer CAPAN-1 cells. Particulars: CAPAN-1 xenograft in nude mice, oral, 50 mg/kg, once a day, consecutive 21 days. The test is classed as in vivo, BALB/cA-nude mice. The method, then:
(§1) Example 3. Test of Tumor Inhibition Effect of Compounds of the Present Invention in Mice The following experiments were conducted to evaluate and compare the effects of the present compound alone in mice tumor models transplanted with human breast cancer cell line MDA-MB-436, human breast cancer cell line MX-1 or human pancreatic cancer cell line CAPAN-1 in vivo.
(§2) Test Compound: Example Compound (4)
(§3) BALB/cA-nude mice, 6-7 weeks, female, available from Shanghai SLAC Laboratory Animal Co., Ltd. Certificate number: SCXK (Shanghai) 2012-0002. Breeding environment: SPF grade.
(§4) The Nude mice were subcutaneously inoculated with human breast cancer MDA-MB-436 cells, human breast cancer MX-1 cells or human pancreatic cancer CAPAN-1 cells. After the tumor grew to 100-200 mm^3, the animals were grouped at random (D0). The tumor volume was measured twice or thrice a week, the body weight of the mice was weighed, and the data was recorded. The tumor volume (V) is calculated by using a formula below: V=½×a×b^2 […]
(§5) in which a, and b denote the length and width. T/C(%)=(T−T0)/(C−C0)×100 in which T are C are the tumor volumes at the end of the experiment; and T0 and C0 are the tumor volumes at the beginning of the experiment.
On the technique in general: In xenograft studies the graft and the host belong to different species.

In test [2] the test system is Human breast cancer MX-1 cells. Description: Tumor inhibition in nude mice tumor model transplanted with human breast cancer MX-1 cells. Format: in vivo, BALB/cA-nude mice. Particulars: MX-1 xenograft in nude mice, oral, 50 mg/kg, once a day, consecutive 21 days. The method, then:
as §1, §2, §3, §4, §5

Test [3] relates to Human breast cancer MDA-MB-436 cells. The test is described as follows: Tumor inhibition in nude mice tumor model transplanted with human breast cancer MDA-MB-436 cells. Format: in vivo, BALB/cA-nude mice. As to conditions: MDA-MB-436 xenograft in nude mice, oral, 30 mg/kg, once a day, consecutive 14 days. The method, then: as §1, §2, §3, §4, §5

In the case of `O=C(c1cc(Cc2n[nH]c(=O)c3ccccc23)ccc1C(F)(F)F)N1CCN(c2ccc3[nH]nnc3n2)CC1` [Compound (16), 4-(3-(4-(1H-[1,2,3]triazolo[4,5-b]pyridin-5-yl)piperazine-1-carbonyl)-4-trifluoromethylbenzyl)phthalazin-1(2H)-one], the IC50 with MDA-MB-436 cells (Homo sapiens) is above 25 µM. Still for that read-out and setting: in the case of `COc1ccc(Cc2n[nH]c(=O)c3ccccc23)cc1C(=O)N1CCN(c2cc3nc[nH]c3cn2)CC1` [Compound (18), 4-(3-(4-(3H-imidazo[4,5-c]pyridin-6-yl)piperazine-1-carbonyl)-4-methoxybenzyl)phthalazin-1(2H)-one] it was above 25 µM; in that of `Cc1nc2nc(N3CCN(C(=O)c4cccc(Cc5n[nH]c(=O)c6ccccc56)c4)CC3)ccc2[nH]1` [Compound (11), 4-(3-(4-(2-methyl-1H-imidazo[4,5-b]pyridin-5-yl)piperazine-1-carbonyl)benzyl)phthalazin-1(2H)-one], above 25 µM; in that of `O=C(c1cccc(Cc2n[nH]c(=O)c3ccccc23)c1)N1CCN(c2ccc3[nH]c(=O)[nH]c3n2)CC1` [Compound (9)], above 25 µM. For `O=C(c1cc(Cc2n[nH]c(=O)c3ccccc23)ccc1C(F)(F)F)N1CCN(c2ccc3[nH]c(=O)[nH]c3n2)CC1` [Compound (17), 4-(3-(4-(2-oxo-2,3-dihydro-1H-imidazo[4,5-b]pyridin-5-yl)piperazine-1-carbonyl)-4-trifluoromethylbenzyl)phthalazin-1(2H)-one], the IC50 with MDA-MB-436 cells (Homo sapiens) is above 25 µM.

For `Cc1nc2nc(N3CCN(C(=O)c4cc(Cc5n[nH]c(=O)c6ccccc56)ccc4F)CC3)ccc2[nH]1` [Compound (2), 4-(4-fluoro-3-(4-(2-methyl-1H-imidazo[4,5-b]pyridin-5-yl)piperazine-1-carbonyl)benzyl)phthalazin-1(2H)-one], the IC50 with MDA-MB-436 cells (Homo sapiens) was above 25 µM. The same measure, in the same setting: in the case of `O=C(c1cc(Cc2n[nH]c(=O)c3ccccc23)ccc1F)N1CCN(c2ccc3[nH]c(=O)[nH]c3n2)CC1` [Compound (5), 4-(4-fluoro-3-(4-(2-oxo-2,3-dihydro-1H-imidazo[4,5-b]pyridin-5-yl)piperazine-1-carbonyl)benzyl)phthalazin-1(2H)-one] it was above 25 µM; in that of `O=C(c1cccc(Cc2n[nH]c(=O)c3ccccc23)c1)N1CCN(c2ccc3[nH]nnc3n2)CC1` [Compound (10), 4-(3-(4-(1H-[1,2,3]triazolo[4,5-b]pyridin-5-yl)piperazine-1-carbonyl)-benzyl)phthalazin-1 (2H)-one], above 25 µM. With `O=C(c1cc(Cc2n[nH]c(=O)c3ccccc23)ccc1F)N1CCN(c2cnc3[nH]cnc3c2)CC1` [Compound (7), 4-(3-(4-(3H-imidazo[4,5-b]pyridin-6-yl)piperazine-1-carbonyl)-4-fluorobenzyl)phthalazin-1(2H)-one], the IC50 in the test with MDA-MB-436 cells (Homo sapiens) was above 25 µM. Same read-out and setting: the figure for `O=C(c1cc(Cc2n[nH]c(=O)c3ccccc23)ccc1F)N1CCN(c2cc3nc[nH]c3cn2)CC1` [Compound (6), 4-(3-(4-(3H-imidazo[4,5-c]pyridin-6-yl)piperazine-1-carbonyl)-4-fluorobenzyl)phthalazin-1(2H)-one] is 18 µM; for `COc1ccc(Cc2n[nH]c(=O)c3ccccc23)cc1C(=O)N1CCN(c2ccc3[nH]cnc3n2)CC1` [Compound (14), 4-(3-(4-(1H-imidazo[4,5-b]pyridin-5-yl)piperazine-1-carbonyl)-4-methoxybenzyl)phthalazin-1(2H)-one] it is 6.8 µM; for `COc1ccc(Cc2n[nH]c(=O)c3ccccc23)cc1C(=O)N1CCN(c2cnc3[nH]cnc3c2)CC1` [Compound (21), 4-(3-(4-(3H-imidazo[4,5-b]pyridin-6-yl)piperazine-1-carbonyl)-4-methoxybenzyl)phthalazin-1(2H)-one] it is above 25 µM. Same read-out and setting: in the case of `O=C(c1cc(Cc2n[nH]c(=O)c3ccccc23)ccc1C(F)(F)F)N1CCN(c2cnc3[nH]cnc3c2)CC1` [Compound (20), 4-(3-(4-(3H-imidazo[4,5-b]pyridin-6-yl)piperazine-1-carbonyl)-4-trifluoromethylbenzyl)phthalazin-1(2H)-one] it was above 25 µM. Turning to `O=C(c1cccc(Cc2n[nH]c(=O)c3ccccc23)c1)N1CCN(c2ccc3[nH]c(C(F)(F)F)nc3n2)CC1` [Compound (12)], in the test with MDA-MB-436 cells, the IC50 is recorded as above 25 µM.

Consider `O=C(c1cc(Cc2n[nH]c(=O)c3ccccc23)ccc1F)N1CCN(c2ncc3[nH]cnc3n2)CC1` [Compound (8), 4-(3-(4-(7H-purin-2-yl)piperazine-1-carbonyl)-4-fluorobenzyl)phthalazin-1(2H)-one], for which, in the test on MDA-MB-436 cells (Homo sapiens), the IC50 worked out at 1.4 µM. On the same count and under the same terms, in the case of `O=C(c1cc(Cc2n[nH]c(=O)c3ccccc23)ccc1F)N1CCN(c2ccc3[nH]nnc3n2)CC1` [Compound (1), 4-(3-(4-(1H-[1,2,3]triazolo[4,5-b]pyridin-5-yl)piperazine-1-carbonyl)-4-fluorobenzyl)phthalazin-1(2H)-one] it was above 25 µM; in that of `O=C(c1cc(Cc2n[nH]c(=O)c3ccccc23)ccc1C(F)(F)F)N1CCN(c2ccc3[nH]cnc3n2)CC1` [Compound (15), 4-(3-(4-(1H-imidazo[4,5-b]pyridin-5-yl)piperazine-1-carbonyl)-4-trifluoromethylbenzyl)phthalazin-1(2H)-one], 23 µM; in that of `O=C(c1cccc(Cc2n[nH]c(=O)c3ccccc23)c1)N1CCN(c2ccc3[nH]cnc3n2)CC1` [Compound (13), 4-(3-(4-(1H-imidazo[4,5-b]pyridin-5-yl)piperazine-1-carbonyl)benzyl)phthalazin-1(2H)-one], 0.7 µM.

Turning to `O=C(c1cc(Cc2n[nH]c(=O)c3ccccc23)ccc1C(F)(F)F)N1CCN(c2cc3nc[nH]c3cn2)CC1` [Compound (19), 4-(3-(4-(3H-imidazo[4,5-c]pyridin-6-yl)piperazine-1-carbonyl)-4-trifluoromethylbenzyl)phthalazin-1(2H)-one], the IC50 with MDA-MB-436 cells (Homo sapiens) was above 25 µM. For the molecule `O=C(c1cc(Cc2n[nH]c(=O)c3ccccc23)ccc1F)N1CCN(C(=O)C2CC2)CC1` [AZD2281, reference compound], the IC50 with MDA-MB-436 cells (Homo sapiens) is above 25 µM. The Tumor inhibition came to 57% in test [1], 13% in test [2] and 83% in test [3]. In the case of `O=C(c1cc(Cc2n[nH]c(=O)c3ccccc23)ccc1F)N1CCN(c2ccc3[nH]c(C(F)(F)F)nc3n2)CC1` [Compound (3)], the IC50 in the test on MDA-MB-436 cells is on record as above 25 µM. Consider `O=C(c1cc(Cc2n[nH]c(=O)c3ccccc23)ccc1F)N1CCN(c2ccc3[nH]cnc3n2)CC1` [Compound (4), 4-(3-(4-(1H-imidazo[4,5-b]pyridin-5-yl)piperazine-1-carbonyl)-4-fluorobenzyl)phthalazin-1(2H)-one], for which the IC50 in the test on MDA-MB-436 cells (Homo sapiens) came out at 0.7 µM. In addition, the Tumor inhibition in test [1] is recorded as 128%; in test [2], 193%; in test [3], 191%.

Source of the values: patent US10174023B2, “Heterocyclic-imidazole compounds, pharmaceutical compositions thereof, preparation method therefor and use thereof” (SHANGHAI HUILUN LIFE SCIENCE & TECHNOLOGY CO., LTD, priority 2015, dated 2019).
